Laboratory results reported in PubChem BioAssay (NCI).
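All cell lines were grown in 96-well plates and treated with compound for 48 hours. GI50: concentration for 50% inhibition of growth. TGI is the concentration that stops growth completely.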

Experiments:
Test in all cases: DTP human tumour cell line panel, 48 h
[1] = system: CCRF-CEM leukemia
[2] = system: MALME-3M melanoma
[3] = system: MCF7 breast
[4] = system: K-562 leukemia
[5] = system: NCI-H226 lung
[6] = system: COLO 205 colon
[7] = system: CAKI-1 renal
[8] = system: SF-295 CNS
[9] = system: 786-0 renal
[10] = system: SF-268 CNS
[11] = system: HCT-15 colon
[12] = system: PC-3 prostate
[13] = system: SR leukemia
[14] = system: RXF 393 renal
[15] = system: NCI/ADR-RES ovarian
[16] = system: NCI-H23 lung
[17] = system: OVCAR-5 ovarian
[18] = system: OVCAR-4 ovarian
[19] = system: MDA-MB-231 breast
[20] = system: NCI-H460 lung
[21] = system: HOP-92 NSCLC
[22] = system: NCI-H522 lung
[23] = system: SK-OV-3 ovarian
[24] = system: HS 578T breast
[25] = system: UACC-62 melanoma
[26] = system: TK-10 renal
[27] = system: OVCAR-3 ovarian
[28] = system: SNB-19 CNS
[29] = system: SK-MEL-2 melanoma
[30] = system: SF-539 CNS
[31] = system: OVCAR-8 ovarian
[32] = system: U251 CNS
[33] = system: SNB-75 CNS
[34] = system: M14 melanoma
[35] = system: LOX IMVI melanoma
[36] = system: HT29 colon
[37] = system: EKVX NSCLC
[38] = system: DU-145 prostate
[39] = system: HCC-2998 colon
[40] = system: MOLT-4 leukemia
[41] = system: A498 renal
[42] = system: KM12 colon
[43] = system: SK-MEL-28 melanoma
[44] = system: UACC-257 melanoma
[45] = system: UO-31 renal
[46] = system: SN12C renal
[47] = system: IGROV1 ovarian
[48] = system: BT-549 breast
[49] = system: SW-620 colon
[50] = system: SK-MEL-5 melanoma
[51] = system: MDA-MB-435
[52] = system: HL-60(TB) leukemia
[53] = system: A549 NSCLC
[54] = system: T-47D breast
[55] = system: ACHN renal
[56] = system: HCT-116 colon
[57] = system: HOP-62 NSCLC

With `O=S(=O)(Nc1cccc(Cl)c1)c1ccc(-c2cnc(C3CC3)o2)cc1` the GI50 [1] was 0.624 µM, the TGI [1] was > 100 µM and the GI50 [2] was 10.3 µM. For the same molecule, the TGI [2] was 32 µM, the GI50 [3] was 0.398 µM and the TGI [3] was 51.6 µM. It also gave a GI50 [4] of 0.305 µM, a TGI [4] of 66 µM and a GI50 [5] of 1.9 µM. The TGI [5] was 17.2 µM, the GI50 [6] was 0.639 µM and the TGI [6] was 6.18 µM. It also gave a GI50 [7] of 0.232 µM, a TGI [7] of 14 µM and a GI50 [8] of 0.394 µM. It also gave a TGI [8] of 12 µM, a GI50 [9] of 3.9 µM and a TGI [9] of 34.8 µM. It also gave a GI50 [10] of 3.28 µM, a TGI [10] of 25.2 µM and a GI50 [11] of 0.43 µM. It also gave a TGI [11] of 20.3 µM, a GI50 [12] of 0.668 µM and a TGI [12] of 17.6 µM. The GI50 [13] was 0.409 µM, the TGI [13] was 32.4 µM and the GI50 [14] was 0.835 µM. It also gave a TGI [14] of 10.9 µM, a GI50 [15] of 0.581 µM and a TGI [15] of 17 µM. It also gave a GI50 [16] of 2.14 µM, a TGI [16] of 20.4 µM and a GI50 [17] of 2.39 µM. The TGI [17] was 18.3 µM, the GI50 [18] was 2.92 µM and the TGI [18] was 16.7 µM. It also gave a GI50 [19] of 2.45 µM, a TGI [19] of 22 µM and a GI50 [20] of 0.446 µM. The TGI [20] was 16.7 µM, the GI50 [21] was 1.74 µM and the TGI [21] was 15.2 µM. For the same molecule, the GI50 [22] was 0.509 µM, the TGI [22] was 16.2 µM and the GI50 [23] was 5.41 µM. It also gave a TGI [23] of 24.9 µM, a GI50 [24] of 0.679 µM and a TGI [24] of 16.6 µM. The GI50 [25] was 0.47 µM, the TGI [25] was 15.3 µM and the GI50 [26] was 5.11 µM. For the same molecule, the TGI [26] was 26.5 µM, the GI50 [27] was 0.417 µM and the TGI [27] was 12.3 µM. For the same molecule, the GI50 [28] was 1.31 µM, the TGI [28] was 35.8 µM and the GI50 [29] was 0.695 µM. The TGI [29] was 20.3 µM, the GI50 [30] was 0.683 µM and the TGI [30] was 11.8 µM. For the same molecule, the GI50 [31] was 1.95 µM, the TGI [31] was 32.9 µM and the GI50 [32] was 0.768 µM. The TGI [32] was 19.8 µM, the GI50 [33] was 0.208 µM and the TGI [33] was 1.96 µM. It also gave a GI50 [34] of 0.593 µM, a TGI [34] of 24.3 µM and a GI50 [35] of 0.617 µM. It also gave a TGI [35] of 18.4 µM, a GI50 [36] of 0.372 µM and a TGI [36] of 12.2 µM. The GI50 [37] was 2.88 µM, the TGI [37] was 40.3 µM and the GI50 [38] was 2.68 µM. For the same molecule, the TGI [38] was 29.1 µM, the GI50 [39] was 2.87 µM and the TGI [39] was 17.1 µM. For the same molecule, the GI50 [40] was 0.657 µM, the TGI [40] was 60.1 µM and the GI50 [41] was 0.453 µM. The TGI [41] was 9.03 µM, the GI50 [42] was 0.443 µM and the TGI [42] was 16.6 µM. For the same molecule, the GI50 [43] was 10.2 µM, the TGI [43] was 23 µM and the GI50 [44] was 6.98 µM. It also gave a TGI [44] of 30.2 µM, a GI50 [45] of 1.68 µM and a TGI [45] of 18.8 µM. For the same molecule, the GI50 [46] was 1.62 µM, the TGI [46] was 20.9 µM and the GI50 [47] was 0.662 µM. For the same molecule, the TGI [47] was 21.6 µM, the GI50 [48] was 1.25 µM and the TGI [48] was 22.7 µM. The GI50 [49] was 0.409 µM, the TGI [49] was 31.3 µM and the GI50 [50] was 2.01 µM. It also gave a TGI [50] of 14.4 µM, a GI50 [51] of 0.379 µM and a TGI [51] of 16.7 µM. The GI50 [52] was 0.388 µM, the TGI [52] was 12.3 µM and the GI50 [53] was 1.35 µM. It also gave a TGI [53] of 44 µM, a GI50 [54] of 0.519 µM and a TGI [54] of 22 µM. For the same molecule, the GI50 [55] was 0.925 µM, the TGI [55] was 37 µM and the GI50 [56] was 0.48 µM. The TGI [56] was 18.7 µM, the GI50 [57] was 0.74 µM and the TGI [57] was 16.3 µM.
